Consider 19 compounds from patent EP3478687B1 (Daewoong Pharmaceutical Co., Ltd., priority 2016, dated 2018).

Assay [1] concerns the target T1, Recombinant purified human BTK (Homo sapiens, UniProt Q06187).
T1 construct: purchased Promega V9071
Nature of the assay: BTK kinase inhibitory activity, ADP-Glo kinase assay (Promega V9071). The assay is classed as biochemical. The note with it: ATP 10 uM, 8 ng BTK per reaction, 1 hour 30 °C, chemiluminescence. In short, it runs like this: (§1)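 IC50 values come from ADP-Glo luminescence after 1 h kinase reactions at 30 °C in 1% DMSO on 0.2 µg/µL Poly(Glu4,Tyr1) substrate. ATP was 10 µM for BTK (8 ng, buffer containing MnCl2) and 5 µM for JAK3 (4 ng), in Tris-Cl pH 7.5/MgCl2/BSA/DTT.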
A general note: In ADP-Glo the light output rises with the ADP produced.

The target in assay [2] is T2, Recombinant purified human JAK3 (Homo sapiens, UniProt P52333).
T2 construct: purchased Promega V9441
T2 sequence (P52333 1-1124): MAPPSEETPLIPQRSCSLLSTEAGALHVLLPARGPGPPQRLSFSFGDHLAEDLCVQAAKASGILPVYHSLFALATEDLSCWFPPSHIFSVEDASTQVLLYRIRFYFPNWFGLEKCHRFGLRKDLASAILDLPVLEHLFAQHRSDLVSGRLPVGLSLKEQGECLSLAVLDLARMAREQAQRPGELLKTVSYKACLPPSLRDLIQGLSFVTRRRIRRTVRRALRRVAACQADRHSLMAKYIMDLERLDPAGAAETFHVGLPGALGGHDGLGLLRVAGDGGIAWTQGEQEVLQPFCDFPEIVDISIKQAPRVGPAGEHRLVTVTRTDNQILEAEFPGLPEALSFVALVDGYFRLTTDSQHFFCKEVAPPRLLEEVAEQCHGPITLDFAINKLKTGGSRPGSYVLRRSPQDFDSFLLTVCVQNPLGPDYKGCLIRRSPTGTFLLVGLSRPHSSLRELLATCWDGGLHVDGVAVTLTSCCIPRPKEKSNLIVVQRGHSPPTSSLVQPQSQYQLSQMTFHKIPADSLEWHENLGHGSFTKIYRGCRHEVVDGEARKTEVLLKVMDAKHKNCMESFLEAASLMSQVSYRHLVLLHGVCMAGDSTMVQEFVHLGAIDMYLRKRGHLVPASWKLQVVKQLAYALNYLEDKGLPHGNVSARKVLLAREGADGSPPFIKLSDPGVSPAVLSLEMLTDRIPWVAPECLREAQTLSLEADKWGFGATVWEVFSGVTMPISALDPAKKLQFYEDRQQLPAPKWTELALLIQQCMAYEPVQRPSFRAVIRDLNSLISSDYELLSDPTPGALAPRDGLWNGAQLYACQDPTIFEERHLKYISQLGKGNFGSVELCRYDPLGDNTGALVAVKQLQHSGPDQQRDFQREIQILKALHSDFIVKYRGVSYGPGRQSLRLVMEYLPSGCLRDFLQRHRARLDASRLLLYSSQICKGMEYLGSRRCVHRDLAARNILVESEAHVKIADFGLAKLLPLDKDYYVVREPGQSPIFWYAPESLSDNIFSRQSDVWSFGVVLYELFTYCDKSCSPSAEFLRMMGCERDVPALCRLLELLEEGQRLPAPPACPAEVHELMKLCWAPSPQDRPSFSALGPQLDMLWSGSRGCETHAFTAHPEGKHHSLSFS
Kind of assay: JAK3 kinase inhibitory activity, ADP-Glo kinase assay (Promega V9441). The class given is biochemical. As to conditions: ATP 5 uM, 4 ng JAK3 per reaction, 1 hour 30 °C, chemiluminescence. In short, it runs like this:
as §1

T1 sequence (Q06187 whole entry): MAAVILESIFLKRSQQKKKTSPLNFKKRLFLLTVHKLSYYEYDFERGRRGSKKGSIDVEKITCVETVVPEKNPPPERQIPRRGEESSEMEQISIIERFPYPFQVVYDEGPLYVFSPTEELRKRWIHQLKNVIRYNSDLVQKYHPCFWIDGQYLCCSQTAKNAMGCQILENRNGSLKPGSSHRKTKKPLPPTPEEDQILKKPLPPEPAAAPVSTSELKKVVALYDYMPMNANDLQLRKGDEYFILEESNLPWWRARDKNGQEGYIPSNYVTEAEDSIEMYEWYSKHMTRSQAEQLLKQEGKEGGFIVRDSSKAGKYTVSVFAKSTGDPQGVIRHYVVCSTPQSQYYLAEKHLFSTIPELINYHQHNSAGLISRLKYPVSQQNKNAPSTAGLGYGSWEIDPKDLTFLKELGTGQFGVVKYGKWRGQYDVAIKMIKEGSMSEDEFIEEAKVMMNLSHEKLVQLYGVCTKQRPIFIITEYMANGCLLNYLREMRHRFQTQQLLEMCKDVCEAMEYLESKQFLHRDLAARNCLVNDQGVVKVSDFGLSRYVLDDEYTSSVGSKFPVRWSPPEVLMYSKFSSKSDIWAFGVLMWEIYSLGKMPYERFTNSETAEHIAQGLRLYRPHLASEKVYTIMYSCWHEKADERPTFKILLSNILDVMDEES

As usually defined, the IC50 is the concentration that gives 50% inhibition. `C=CC(=O)N1CCC[C@@H](Nc2nc(Nc3cnn(Cc4cccc(OC)c4)c3)nc3[nH]nc(Cl)c23)C1` [Example 58, (R)-1-(3-(3-chloro-6-(1-(3-methoaybenzyl)-1H-pyrazol-4-ylamino)-1H-pyrazolo[3,4-d]pyrimidin-4-ylamino)piperidin-1-yl)prop-2-en-1-one]: the results for the IC50 in assay [1] and in assay [2] were 1.8 nM and 0.5 nM, respectively.
The corresponding values for `C=CC(=O)N1CCC[C@@H](Nc2nc(Nc3cnoc3)nc3[nH]nc(Cl)c23)C1` [Example 59, (R)-1-(3-(3-chloro-6-(isoxazol-4-ylamino)-1H-pyrazolo[3,4-d]pyrimidin-4-ylamino)piperidin-1-yl)prop-2-en-1-one] are 1.8 nM and 1.4 nM.
With `C=CC(=O)N1CCC[C@@H](Nc2nc(Nc3cnn(CC(=O)NC)c3)nc3[nH]cc(Cl)c23)C1` [Example 60, (R)-2-(4-((4-((1-acryloylpiperidin-3-yl)amino)-5-chloro-7H-pyrrolo[2,3-d]pyrimidin-2-yl)amino)-lH-pyrazol-1-yl)-N-methylacetamide], the figures for the IC50 in assay [1] and in assay [2] were 1.7 nM and 0.2 nM, respectively.
With `C=CC(=O)N1CCC[C@@H](Nc2nc(Nc3ccc(N4CCOCC4)cc3)nc3[nH]cc(Cl)c23)C1` [Example 61, (R)-1-(3-((5-chloro-2-((4-morpholinophenyl)amino)-7H-pyrrolo[2,3-d]pyrimidin-4-yl)amino)piperidin-1-yl)prop-2-en-1-one], the results for the IC50 in assay [1] and in assay [2] were 1.7 nM and 1.1 nM, respectively.
Take `C=CC(=O)N1CCC[C@@H](Nc2nc(Nc3cnn(C4CC4)c3)nc3[nH]cc(Cl)c23)C1` [Example 62, (R)-1-(3-((5-chloro-2-((1-cyclopropyl-1H-pyrazol-4-yl)amino)-7H-pyrrolo[2,3-d]pyrimidin-4-yl)amino)piperidin-1-yl)prop-2-en-1-one]: the IC50 in assay [1] was 1.7 nM; in assay [2], 0.2 nM.
As for `C=CC(=O)N1CCC[C@@H](Nc2nc(Nc3cnn(CC(C)C)c3)nc3[nH]cc(Cl)c23)C1` [Example 63, (R)-1-(3-((5-chloro-2-((1-isobutyl-1H-pyrazol-4-yl)amino)-7H-pyrrolo[2,3-d]pyrimidin-4-yl)amino)piperidin-1-yl)prop-2-en-1-one], the IC50 amounted to 1.7 nM in assay [1] and 0.3 nM in assay [2].
The corresponding values for `C=CC(=O)N1CCC[C@@H](Nc2nc(Nc3cnn(C(F)F)c3)nc3[nH]nc(Cl)c23)C1` [Example 64, (R)-1-(3-((3-chloro-6-((1-(difluoromethyl)-1H-pyrazol-4-yl)amino)-1H-pyrazolo[3,4-d]pyrimidin-4-yl)amino)piperidin-1-yl)prop-2-en-1-one] are 1.7 nM and 0.7 nM.
Take `C=CC(=O)N1CCC[C@@H](Nc2nc(Nc3cnn(CC(C)C)c3)nc3[nH]ncc23)C1` [Example 65, (R)-1-(3-((6-((1-isobutyl-1H-pyrazol-4-yl)amino)-1H-pyrazolo[3,4-d]pyrimidin-4-yl)amino)piperidin-1-yl)prop-2-en-1-one]: the figures for the IC50 in assay [1] and in assay [2] were 1.7 nM and 5.5 nM, respectively.
As to `C=CC(=O)N1CCC[C@@H](Nc2nc(Nc3cnn(C(C)(C)C)c3)nc3[nH]ncc23)C1` [Example 66, (R)-1-(3-((6-((1-(tert-butyl)-1H-pyrazol-4-yl)amino)-1H-pyrazolo [3,4-d]pyrimidin-4-yl)amino)piperidin-1-yl)prop-2-en-1-one], the results for the IC50 in assay [1] and in assay [2] were 1.7 nM and 3.7 nM, respectively.
Take `C=CC(=O)N1CCC[C@@H](Nc2nc(Nc3cnn(C4CC4)c3)nc3[nH]ncc23)C1` [Example 67, (R)-1-(3-((6-((1-cyclopropyl-1H-pyrazol-4-yl)amino)-1H-pyrazolo [3,4-d]pyrimidin-4-yl)amino)piperidin-1-yl)prop-2-en-1-one]: the half-maximal inhibitory concentration (IC50) stood at 1.7 nM in assay [1] and 5.7 nM in assay [2].
Take `C=CC(=O)N1CCC[C@@H](Nc2nc(Nc3ccc(C(=O)N4CCOCC4)cc3)nc3[nH]cc(Cl)c23)C1` [Example 68, (R)-1-(3-((5-chloro-2-((4-(morpholine-4-carbonyl)phenyl)amino)-7H-pyrrolo[2,3-d]pyrimidin-4-yl)amino)piperidin-1-yl)prop-2-en-1-one]: the concentration for half-maximal inhibition (IC50) in assay [1] turned out to be 12.1 nM; in assay [2], 0.7 nM.
Regarding `C=CC(=O)N1CCC[C@@H](Nc2nc(Nc3cnn(C)c3)nc3[nH]cc(Cl)c23)C1` [Example 69, (R)-1-(3-((5-chloro-2-((1-methyl-1H-pyrazol-4-yl)amino)-7H-pyrrolo[2,3-d]pyrimidin-4-yl)amino)piperidin-1-yl)prop-2-en-1-one], the results for the 50% inhibitory concentration (IC50) in assay [1] and in assay [2] were 8.6 nM and 0.3 nM, respectively.
For the compound `C=CC(=O)N1CCC[C@@H](Nc2nc(Nc3cnn(C(C)(C)C)c3)nc3[nH]cc(Cl)c23)C1` [Example 70, (R)-1-(3-((2-((1-(tert-butyl)-1H-pyrazol-4-yl)amino)-5-chloro-7H-pyrrolo[2,3-d]pyrimidin-4-yl)amino)piperidin-1-yl)prop-2-en-1-one], the IC50 in assay [1] was found to be 2.3 nM; in assay [2], 0.2 nM.
In the case of `C=CC(=O)N1CCC[C@@H](Nc2nc(Nc3cnn(C4CCOCC4)c3)nc3[nH]ncc23)C1` [Example 71, (R)-1-(3-((6-((1-(tetrahydro-2H-pyran-4-yl)-1H-pyrazol-4-yl)amino)-1H-pyrazolo[3,4-d]pyrimidin-4-yl)amino)piperidin-1-yl)prop-2-en-1-one], the IC50 in assay [1] was 1.3 nM; in assay [2], 2.8 nM.
Turning to `C=CC(=O)N1CCC[C@@H](Nc2nc(Nc3cnn(CCN4CCOCC4)c3)nc3[nH]ncc23)C1` [Example 72, (R)-1-(3-((6-((1-(2-morpholinoethyl)-1H-pyrazol-4-yl)amino)-1H-pyrazolo[3,4-d]pyrimidin-4-yl)amino)piperidin-1-yl)prop-2-en-1-one], the figures for the IC50 in assay [1] and in assay [2] were 1.1 nM and 2.2 nM, respectively.
Consider `C=CC(=O)N1CCC[C@@H](Nc2nc(Nc3cnn(CCC)c3)nc3[nH]ncc23)C1` [Example 73, (R)-1-(3-((6-((1-propyl-1H-pyrazol-4-yl)amino)-1H-pyrazolo[3,4-d]pyrimidin-4-yl)amino)piperidin-1-yl)prop-2-en-1-one], for which the figures for the IC50 in assay [1] and in assay [2] were 1.1 nM and 4.4 nM, respectively.
On to `C=CC(=O)N1CCC[C@@H](Nc2nc(Nc3cnn(CCOC)c3)nc3[nH]ncc23)C1` [Example 74, (R)-1-(3-((6-((1-(2-methoayethyl)-1H-pyrazol-4-yl)amino)-1H-pyrazolo[3,4-d]pyrimidin-4-yl)amino)piperidin-1-yl)prop-2-en-1-one], for which the figures for the IC50 in assay [1] and in assay [2] were 1.7 nM and 5.4 nM, respectively.
For the compound `C=CC(=O)N1CCC[C@@H](Nc2nc(Nc3cc(C)ns3)nc3[nH]ccc23)C1` [Example 75, (R)-1-(3-((2-((3-methylisothiazol-5-yl)amino)-7H-pyrrolo[2,3-d]pyrimidin-4-yl)amino)piperidin-1-yl)prop-2-en-1-one], the IC50 in assay [1] was found to be 4.1 nM; in assay [2], 0.2 nM.
On to `C=CC(=O)N1CC[C@@H](F)[C@@H](Nc2nc(Nc3cnn(CC)c3)nc3[nH]ccc23)C1` [Example 76, 1-((3S,4R)-3-((2-((1-ethyl-1H-pyrazol-4-yl)amino)-7H-pyrrolo[2,3-d]pyrimidin-4-yl)amino)-4-fluoropiperidin-1-yl)prop-2-en-1-one], for which the IC50 worked out at 1 nM in assay [1] and 0.3 nM in assay [2].
